Test results as given in article PMC10989010, “A panel of janus kinase inhibitors identified with anti-inflammatory effects protect mice from lethal influenza virus infection” (Antimicrobial Agents and Chemotherapy, 2024).
Where a name gives a salt, the structure may show the parent alone. Read-outs that look alike come from different tables or passages of the source.

Legend:
[1] = Cytotoxicity assay (CellTiter-Glo); type: cell-based, human; conditions: human
Procedure: (§1) The compound cytotoxicity was determined by CellTiter-Glo Assay (Promega, Madison, WI, USA). After adding 15 µL of CellTiter-Glo reagent to each well, plates were incubated at room temperature for 15 minutes with shaking. The luminescence intensity was determined by a multimode plate reader (Wallac Envision, PerkinElmer, MA, USA).

U937 cells = test: Cytotoxicity assay (CellTiter-Glo); type: cell-based, human; conditions: U937 cells; CellTiter-Glo; mean of three independent experiments
Procedure: as §1

IP-10 = test: cells; type: cell-based, human; conditions: read-out: IC50 IP-10
MCP1 = test: cells; type: cell-based, human; conditions: read-out: IC50 MCP1
IL-8 = test: U937 cell-based anti-inflammatory assay for influenza virus infection, IL-8 production (AlphaLISA); design: species or system human; conditions: read-out: IC50 IL-8
Procedure: U937 cells were seeded in a 96-well culture plate at a density of 1.5 × 10^5 cells per well and incubated for 24 hours prior to virus infection. Subsequently, the cells in each well were infected with the PR8 virus at a multiplicity of infection of 0.05 and treated with serially diluted drugs or left untreated as a control. The drugs were serially diluted threefold, starting from an initial concentration of 200 µM down to 0.01 µM. […] Following this incubation, the supernatants were collected and subjected to AlphaLISA analysis to determine IL-8, IP-10, and MCP1 protein levels.
The AlphaLISA detection kits employed in this study were IL-8 (PerkinElmer AL224), IP-10 (PerkinElmer AL259), and MCP1 (PerkinElmer, AL244). U937 cell culture supernatants were measured for IL-8, IP-10, and MCP-1 protein levels using AlphaLISA assay as per the manufacturer’s recommendations. The ELISA and AlphaLISA plates were read using the Varioskan LUX multimode microplate reader (Thermo Scientiﬁc, Waltham, MA, USA).

[2] = U937 cells, CellTiter-Glo, mean of three independent experiments, read-out: CC50

| Structure (SMILES) | CC50 [1, 2] | CC50 (U937 cells) | IC50 (IP-10; Homo sapiens, U-937, 72 h) | IC50 (MCP1; Homo sapiens, U-937, 72 h) | IC50 (IL-8; Homo sapiens, U-937, 72 h) | IC50 (IP-10) | IC50 (MCP1) | IC50 (IL-8; U937 cells infected with PR8 virus, 72 hours, Alphalisa, mean of three independent experiments) | CC50 [1] |
| --- | --- | --- | --- | --- | --- | --- | --- | --- | --- |
| C[C@@H]1CCN(C(=O)CC#N)C[C@@H]1N(C)c1ncnc2[nH]ccc12 [Tofacitinib citrate] | > 100000 nM |  |  |  |  |  |  |  |  |
| CCS(=O)(=O)N1CC(CC#N)(n2cc(-c3ncnc4[nH]ccc34)cn2)C1 [Baricitinib] |  | > 100000 nM |  |  |  |  |  |  |  |
| O=C(Nc1ccc(-c2ccnc(Nc3ccc(N4CCOCC4)cc3)n2)cc1)C1CCCN1 (stereo not drawn) [XL019] |  | 26700 nM | 990 nM | 940 nM | 510 nM |  |  |  |  |
| N#CC[C@H](C1CCCC1)n1cc(-c2ncnc3[nH]ccc23)cn1 [Ruxolitinib] |  | 100000 nM | 70 nM | 30 nM | 120 nM |  |  |  |  |
| CN1CCN(c2cccc(Nc3nc4c(-c5ccc(S(C)(=O)=O)cc5)cccn4n3)c2)CC1 [CEP-33779] |  | 10500 nM |  |  |  | 220 nM | 240 nM | 360 nM |  |
| CCS(=O)(=O)N1CCN(c2ccc(Nc3ncc(C(N)=O)c(NC4CC4)n3)cc2)CC1 [Cerdulatinib hydrochloride] |  | 3500 nM | 50 nM | 20 nM | < 5 nM |  |  |  |  |
| NC(=O)c1cnc2[nH]ccc2c1N[C@@H]1[C@@H]2CC3C[C@H]1C[C@@](O)(C3)C2 [Peficitinib] |  |  | 20 nM |  | 10 nM |  |  |  | 34700 nM |
| C[C@@H]1CCN(C(=O)CC#N)C[C@@H]1N(C)c1ncnc2[nH]ccc12 [Tofacitinib] |  | > 100000 nM |  |  |  |  |  |  |  |
| N#CC[C@@H](C1CCCC1)n1cc(-c2ncnc3[nH]ccc23)cn1 [S-Ruxolitinib] | 100000 nM |  | 80 nM | 60 nM | 30 nM |  |  |  |  |
| Cc1cc(Nc2nc(N[C@@H](C)c3ncc(F)cn3)ncc2Cl)n[nH]1 [AZD1480] | 13500 nM |  | 1000 nM | 300 nM | 1100 nM |  |  |  |  |
| Cc1cc(Nc2nc(N[C@@H](C)c3ccc(F)cc3)c(C#N)cc2F)n[nH]1 [AZ 960] |  | 6000 nM | 10 nM | < 5 nM | < 5 nM |  |  |  |  |
| Cc1cc(Nc2cc(CN3CCOCC3)c3nc(C)c(Cc4ccc(Cl)cc4F)n3n2)n[nH]1 [Gandotinib] |  | 26000 nM | 10 nM | < 5 nM | < 5 nM |  |  |  |  |
| CC[C@@](C)(Nc1ccnc(-c2c[nH]c3ncccc23)n1)C(=O)NCC(F)(F)F [Decernotinib] |  | 50000 nM | 100 nM | 50 nM |  |  |  |  |  |
| N#CCNC(=O)c1ccc(-c2ccnc(Nc3ccc(N4CCOCC4)cc3)n2)cc1 [Momelotinib] |  | 5400 nM | 480 nM | 30 nM | 300 nM |  |  |  |  |
